# Measured values as given in US20240139220A1, “TREATMENT OF HPV INFECTION” (priority 2022, published 2024).
# Legend:
# [1] = Approximate solubility in solvents at 25° C. and 50° C. by visual observation; format: physicochemical
# Procedure: The maximum volume of each solvent added was 1 mL. Approximate solubility was determined by visual observation.
# Maximum volume of each solvent added was 1 mL. Approximate solubility was determined by visual observation.
# [2] = Bulk stability, accelerated storage for one week (HPLC, XRPD); format: physicochemical
# Procedure: Bulk stability: Accelerated stability experiments were conducted at 25° C./92% RH and 40° C./75% RH in an open container, 60° C. in a tight container for one week.
# Samples were characterized by XRPD and HPLC and inspected for color change.
# Accelerated stability experiments were conducted at 25° C./92% RH in an open container, at 40° C./75% RH in an open container, and at 60° C. in a tight container for one week.
# [3] = Solubility in buffers, water and simulated vaginal fluid at 37° C.; format: physicochemical
# Procedure: About 4 mg of Compound I Pattern 1 was added into 2 mL of buffer solution.
# (§1) Solubility was tested in five media, pH 3.0 citrate buffer, pH 4.5 acetate buffer, pH 6.8 phosphate buffer, water, simulated vaginal fluid (pH 4.2) at 37° C. for 0.5 h and 2 h.
# The salt amount used is equivalent to 10 mg anhydrous free base. […] The obtained clear solutions were analyzed by pH meter for pH, and solubility was determined by observation.
# as §1
# [4] = Hygroscicity by Dynamic Vapor Sorption (DVS) at 25° C.; format: physicochemical
# Procedure: Hygroscopicity was investigated by DVS at 25° C., using the following method: […]
# [5] = Behavior under compression, grinding simulation and granulation simulation (XRPD); format: physicochemical
# Procedure: About 10 mg of Compound I monofumarate Pattern 1 (Example 7) was compressed for 5 minutes at 10 MPa with a hydraulic press. XRPD characterization was performed to investigate the polymorphic behavior under compression.
# About 10 mg of Compound I monofumarate Pattern 1 (Example 7) was ground manually with a mortar and pestle for 5 min. Form transformation and degree of crystallinity was evaluated by XRPD.
# Water or ethanol was added drop wise to about 10 mg of Compound I monofumarate Pattern 1 (Example 7) until solids were wetted sufficiently. The samples were ground manually with a mortar and pestle for 3 minutes. Samples are dried under ambient condition for 10 min. Form transformation and degree of crystallinity were evaluated by XRPD.
# [6] = Ex vivo permeation and penetration across porcine vaginal tissue (Franz diffusion cells, IVPT); format: in vitro ADME
# Text: FIG. 116 is an in vitro tissue permeation test in vaginal tissue comparing Compound II to ABI-1968. […] Bars B and C show the tissue penetration of a 0.1% Compound II gel in […]. […] This may be a contributing factor to the performance of ABI-1968 in clinical studies. […] This is described in Example 41.
# Freshly harvested porcine vaginal tissue was procured from local slaughterhouse in an ice box. The vaginal tissue was cut open to expose the mucosal surface and tissue was cleaned by gentle flow of PBS pH 7.4. The porcine vaginal tissue was cut into circular portions (approximately 2 cm^2) with help of a […] punch.
# The circular portion of tissue was sandwiched between two chambers of a Franz diffusion cell with an active diffusion area of 1 cm^2, and the mucosal layer was exposed to the donor chambers. The resistance across porcine vaginal tissue was measured using a wave form generator to ensure the integrity of the tissue segment used for the permeation study. Porcine vaginal tissue with resistance of ≥3 KΩ.cm^2 was used for study. The receiver chamber was filled with 8 ml of 5% solutol PBS 7.4 pH, which was stirred at 600 rpm with a 3 mm magnetic stir bar and the temperature was maintained at 37° C. with a circulating water bath.
# The ˜200 mg of gel was filled into tared 1 mL syringe and gel was dispensed to donor chamber. The gel was spread on to mucosal surface with pre weighed applicator. After loading and spreading of the gel onto surface of mucosal surface, the weight of 1 mL syringe and applicator was noted to determine the exact amount of gel loaded into donor chamber.
# Time course (2 h, 4 h and 8 h) porcine vaginal permeation studies were performed. After loading gel, 500 μL samples were withdrawn from the receiver compartment at different time intervals and each time an equal volume of fresh receiver media was used to replace withdrawn samples. The sample withdrawn at each time interval were stored immediately in −20° C. until analysis. After 2, 4 and 8 h, the formulation was removed from the donor chamber with help of syringe and cleaned with cotton swab. The tissue was removed and washed gently with wash solution (50% methanol in water) 5 times and alternatively cleaning with cotton swab.
# An 8 mm punch of active diffusion area of washed porcine vaginal tissue was removed, weighed and transferred into a tube. This tube was immediately placed into dry ice for ˜15 min. After specified time, tissue was removed and placed in precooled dish. The tissue was minced into smaller pieces on a dish with a precooled surgical blade. The minced tissue was transferred to sample tubes and dish was rinsed with 1 ml of 5% solutol in PBS 7.4 pH and transferred to same tissue sample tube. These tubes were stored in −70° C. until analysis.
# The samples stored at −20° C. was removed and thawed at room temperature for 30 min. The drug from receptor fluid was centrifuged at 13000 rpm for 5 min and to 200 μL of supernatant equal volume of extraction solvent was added. These samples were centrifuged at 13000 rpm for 5 min and supernatant was transferred into vials for analysis.
# The minced tissue samples stored at −70° C. were removed and thawed at room temperature for ˜90 min. The samples were kept for shaking at room temperature for 4 h in BioShaker. After 4 h, samples were centrifuged at 13000 rpm for 5 min. To 100 μL of supernatant, 400 μL of extraction solvent was added and vortexed for 2 min. […]
# [7] = 25° C., 92% RH, open container, one week
# [8] = 40° C., 75% RH, open container, one week
# [9] = 60° C., tight container, one week
# [10] = Simulated vaginal fluid (pH adjusted with 0.2N NaOH)
compound,measurement,setting,value
CCOC(=O)C(C)NP(=O)(COCCn1cnc2c(OC)nc(N)nc21)OCc1ccccc1.O=C(O)C=CC(=O)O (mixture of isomers) [Compound I Monofumarate Pattern 1],Solubility,"[1]; Acetone, 25° C.",50 to 100 mg/mL
same,Solubility,"[1]; Acetone, 50° C.",125 to 167 mg/mL
same,Solubility,"[1]; Acetonitrile (ACN), 25° C.",20 to 25 mg/mL
same,Solubility,"[1]; Acetonitrile (ACN), 50° C.",20 to 33 mg/mL
same,Solubility,"[1]; Dichloromethane (DCM), 25° C.",<2 mg/mL
same,Solubility,"[1]; Dichloromethane (DCM), 50° C.",<10 mg/mL
same,Solubility,"[1]; Ethanol (EtOH), 25° C.",>100 mg/mL
same,Solubility,"[1]; Ethanol (EtOH), 50° C.",250 to 500 mg/mL
same,Solubility,"[1]; Ethyl acetate (EA), 25° C.",<2 mg/mL
same,Solubility,"[1]; Ethyl acetate (EA), 50° C.",<10 mg/mL
same,Solubility,"[1]; Heptanes, 25° C.",<2 mg/mL
same,Solubility,"[1]; Heptanes, 50° C.",<10 mg/mL
same,Solubility,"[1]; Isopropanol (IPA), 25° C.",50 to 100 mg/mL
same,Solubility,"[1]; Isopropanol (IPA), 50° C.",71 to 84 mg/mL
same,Solubility,"[1]; Isopropyl acetate (IPAc), 25° C.",<2 mg/mL
same,Solubility,"[1]; Isopropyl acetate (IPAc), 50° C.",<10 mg/mL
same,Solubility,"[1]; Methanol (MeOH), 25° C.",>100 mg/mL
same,Solubility,"[1]; Methanol (MeOH), 50° C.",>500 mg/mL
same,Solubility,"[1]; Methyl ethyl ketone (MEK), 25° C.",20 to 25 mg/mL
same,Solubility,"[1]; Methyl ethyl ketone (MEK), 50° C.",22 to 25 mg/mL
same,Solubility,"[1]; Methyl t-butyl ether (MTBE), 25° C.",<2 mg/mL
same,Solubility,"[1]; Methyl t-butyl ether (MTBE), 50° C.",<10 mg/mL
same,Solubility,"[1]; Tetrahydrofuran (THF), 25° C.",>100 mg/mL
same,Solubility,"[1]; Tetrahydrofuran (THF), 50° C.",250 to 500 mg/mL
same,Solubility,"[1]; Toluene, 25° C.",<2 mg/mL
same,Solubility,"[1]; Toluene, 50° C.",<10 mg/mL
same,Solubility,"[1]; Water, 25° C.",14 to 17 mg/mL
same,Solubility,"[1]; Water, 50° C.",22 to 25 mg/mL
same,XRPD,"[2]; 25° C., 84% RH, open container, 2 days",No change
same,HPLC (chemical purity),[2]; [7],98.2%
same,XRPD,[2]; [7],No change
same,HPLC (chemical purity),[2]; [8],95.6%
same,XRPD,[2]; [8],No change
same,HPLC (chemical purity),[2]; [9],95.5%
same,XRPD,[2]; [9],No change
same,HPLC (chemical purity),[2]; Initial,98.6%
same,Solubility 0.5 hrs,[3]; [10],>2 mg/mL
same,Solubility 2 hrs,[3]; [10],>2 mg/mL
same,pH at 2 hrs,[3]; [10],(5.39)
same,Solubility 0.5 hrs,[3]; Water,>2 mg/mL
same,Solubility 2 hrs,[3]; Water,>2 mg/mL
same,pH at 2 hrs,[3]; Water,(3.11)
same,Solubility 0.5 hrs,[3]; pH 3.0 100 mM citrate buffer,>2 mg/mL
same,Solubility 2 hrs,[3]; pH 3.0 100 mM citrate buffer,>2 mg/mL
same,pH at 2 hrs,[3]; pH 3.0 100 mM citrate buffer,(3.05)
same,Solubility 0.5 hrs,[3]; pH 4.5 50 mM acetate buffer,>2 mg/mL
same,Solubility 2 hrs,[3]; pH 4.5 50 mM acetate buffer,>2 mg/mL
same,pH at 2 hrs,[3]; pH 4.5 50 mM acetate buffer,(4.36)
same,Solubility 0.5 hrs,[3]; pH 6.8 50 mM phosphate buffer,>2 mg/mL
same,Solubility 2 hrs,[3]; pH 6.8 50 mM phosphate buffer,>2 mg/mL
same,pH at 2 hrs,[3]; pH 6.8 50 mM phosphate buffer,(6.49)
same,D. (%) Cycle 1 (Desorption),"[4]; 0% RH, 25° C.",0.49%
same,D. (%) Cycle 2 (Desorption),"[4]; 0% RH, 25° C.",0.09%
same,S. (%) Cycle 1 (Sorption),"[4]; 0% RH, 25° C.",0.49%
same,S. (%) Cycle 2 (Sorption),"[4]; 0% RH, 25° C.",0.09%
same,D. (%) Cycle 1 (Desorption),"[4]; 10% RH, 25° C.",0.62%
same,D. (%) Cycle 2 (Desorption),"[4]; 10% RH, 25° C.",0.15%
same,S. (%) Cycle 1 (Sorption),"[4]; 10% RH, 25° C.",0.56%
same,S. (%) Cycle 2 (Sorption),"[4]; 10% RH, 25° C.",0.18%
same,D. (%) Cycle 1 (Desorption),"[4]; 20% RH, 25° C.",0.71%
same,D. (%) Cycle 2 (Desorption),"[4]; 20% RH, 25° C.",0.35%
same,S. (%) Cycle 1 (Sorption),"[4]; 20% RH, 25° C.",0.66%
same,S. (%) Cycle 2 (Sorption),"[4]; 20% RH, 25° C.",0.27%
same,D. (%) Cycle 1 (Desorption),"[4]; 30% RH, 25° C.",0.81%
same,D. (%) Cycle 2 (Desorption),"[4]; 30% RH, 25° C.",0.47%
same,S. (%) Cycle 1 (Sorption),"[4]; 30% RH, 25° C.",0.76%
same,S. (%) Cycle 2 (Sorption),"[4]; 30% RH, 25° C.",0.37%
same,D. (%) Cycle 1 (Desorption),"[4]; 40% RH, 25° C.",0.93%
same,D. (%) Cycle 2 (Desorption),"[4]; 40% RH, 25° C.",0.56%
same,S. (%) Cycle 1 (Sorption),"[4]; 40% RH, 25° C.",0.86%
same,S. (%) Cycle 2 (Sorption),"[4]; 40% RH, 25° C.",0.47%
same,D. (%) Cycle 2 (Desorption),"[4]; 50% RH, 25° C.",0.67%
same,S. (%) Cycle 1 (Sorption),"[4]; 50% RH, 25° C.",0.71%
same,D. (%) Cycle 2 (Desorption),"[4]; 60% RH, 25° C.",0.85%
same,S. (%) Cycle 1 (Sorption),"[4]; 60% RH, 25° C.",0.85%
same,D. (%) Cycle 2 (Desorption),"[4]; 70% RH, 25° C.",1.04%
same,S. (%) Cycle 1 (Sorption),"[4]; 70% RH, 25° C.",1.02%
same,D. (%) Cycle 2 (Desorption),"[4]; 80% RH, 25° C.",1.30%
same,S. (%) Cycle 1 (Sorption),"[4]; 80% RH, 25° C.",1.27%
same,D. (%) Cycle 2 (Desorption),"[4]; 90% RH, 25° C.",1.84%
same,S. (%) Cycle 1 (Sorption),"[4]; 90% RH, 25° C.",1.78%
same,D. (%) Cycle 2 (Desorption),"[4]; 95% RH, 25° C.",2.89%
same,S. (%) Cycle 1 (Sorption),"[4]; 95% RH, 25° C.",2.89%
same,XRPD after DVS test,"[4]; cycle 40-0-95-0-40% RH, 25° C.","No form change,"
same,Water uptake,"[4]; up to 95% RH, DVS 25° C.",about 2.9%
same,Polymorphic behavior under compression (XRPD),[5]; compressed for 5 minutes at 10 MPa,no form change was observed
same,Form transformation and crystallinity after grinding (XRPD),[5]; ground manually with mortar and pestle for 5 min,no form change was observed; crystallinity slightly decreased
same,Form transformation after granulation simulation (XRPD),"[5]; wetted with water or ethanol, ground 3 minutes, dried 10 min","neither in ethanol, nor in water form change was observed"
CCCCCCCCCCCCCCCCCCOCCOP(=O)(O)COCCn1cnc2c(=O)[nH]c(N)nc21 [ABI-1968],Concentration in vaginal tissue,[6]; 3% dose (FIG. 116),< 15 ng/mL
same,Tissue penetration,"[6]; porcine vaginal tissue, FIG. 116, Compound II 0.1% gel, ABI-1968 1% and 3% formulations",substantially smaller degree
same,Tissue concentration,[6]; up to a 3% dose (Bar F and G in FIG. 116),< 15 ng/mg
